# Where a name gives a salt, the structure may show the parent alone. Read-outs that look alike come from different tables or passages of the source.
# Assays:
# [1] = system: human breast cancer cell line T-47D; test: Caspase cascade activation (DEVD-R110 fluorogenic substrate) in T-47D cells; type: cell-based; conditions: 24 h, read-out: Caspase Activation Potency EC50 (nM) (24 h) T-47D
# Experimental: (§1) Human breast cancer cell line T-47D, human lung cancer cell line H1299 and human hepatocellular carcinoma cell line SNU398 were grown according to media component mixtures designated by American Type Culture Collection+10% FCS (Invitrogen Corporation), in a 5% CO2-95% humidity incubator at 37° C. T-47D and H1299 cells were maintained at a cell density between 50 and 80% confluency at a cell density of 0.1 to 0.6×10^6 cells/mL. Cells were harvested at 600×g and resuspended at 0.65×10^6 cells/mL into appropriate media+10% FCS. An aliquot of 22.5 μL of cells was added to a well of a 384-well microtiter plate containing 2.5 μL of a 10% DMSO in RPMI-1640 media solution containing 0.16 to 100 μM of N-(4-methoxyphenyl)-N, 2-dimethylthieno[3,2-d]pyrimidin-4-amine or other test compound (0.016 to 10 μM final). An aliquot of 22.5 μL of cells was added to a well of a 384-well microtiter plate containing 2.5 μL of a 10 % DMSO in RPMI-1640 media solution without test compound as the control sample. The samples were mixed by agitation and then incubated at 37° C. for 24 h or 48 h in a 5% CO2-95% humidity incubator. After incubation, the samples were removed from the incubator and 25 μL of a solution containing 14 μM of N-(Ac-DEVD)-N′-ethoxycarbonyl-R110 (SEQ ID No.:1) fluorogenic substrate (Cytovia, Inc.; WO99/18856), 20% sucrose (Sigma), 20 mM DTT (Sigma), 200 mM NaCI (Sigma), 40 mM Na PIPES buffer pH 7.2 (Sigma), and 500 μg/mL lysolecithin (Calbiochem) was added. The samples were mixed by agitation and incubated at room temperature. Using a fluorescent plate reader (Model SPECTRAfluor Plus, Tecan), an initial reading (T=0) was made approximately 1-2 min after addition of the substrate solution, employing excitation at 485 nm and emission at 530 nm, to determine the background fluorescence of the control sample. After the 3 h incubation, the samples were read for fluorescence as above (T=3 h).
# (§2) The Relative Fluorescence Unit values (RFU) were used to calculate the sample readings as follows: RFU(T=3h)-Control RFU(T=0)=Net RFU(T=3h)
# (§3) The activity of caspase cascade activation was determined by the ratio of the net RFU value for N-(4-methoxyphenyl)-N,2-dimethylthieno[3,2-d]pyrimidin-4-amine or other test compound to that of control samples. The EC50 (nM) was determined by a sigmoidal dose-response calculation (Prism 3.0, GraphPad Software Inc.).
# [2] = system: human lung cancer cell line H1299; test: Caspase cascade activation (DEVD-R110 fluorogenic substrate) in H1299 cells; type: cell-based; conditions: read-out: Caspase Activation Potency EC50 (nM) (24 h) H1299
# Experimental: as §1, §2, §3
# T-47D cells = test: Inhibition of cell proliferation (GI50, CellTiter-Glo) in T-47D cells; type: cell-based, human; conditions: Homo sapiens; T47D, 48 h incubation; read-out: GI50 in Cancer Cells GI50 (nM) T47D
# Experimental: (§4) T-47D, HT29, H1299, MX-1 and MDAMB435 cells were grown and harvested as in Example 29. An aliquot of 90 μL of cells (4.4×10^4 cells/mL) was added to a well of a 96-well microtiter plate containing 5 μL of a 10% DMSO in RPMI-1640 media solution containing 10 nM to 100 μM of N-(4-methoxyphenyl)-N,2-dimethylthieno[2,3-d]pyrimidin-4-amine (1 nM to 10 μM final) or related compounds. An aliquot of […] of cells was added to a well of a 96-well microtiter plate containing 5 μL of a 10% DMSO in RPMI-1640 media solution without compound as the control sample for maximal cell proliferation (LMax). The samples were mixed by agitation and then incubated at 37° C. for 48 h in a 5% CO2-95% humidity incubator. After incubation, the samples were removed from the incubator and 25 μL of CellTiter-Glo™ reagent (Promega) was added. The samples were mixed by agitation and incubated at room temperature for 10-15 min. Plates were then read using a luminescent plate reader (Model SPECTRAfluor Plus, Tecan) to give Ltest values.
# (§5) The samples were mixed by agitation and then incubated at 37° C. for 0.5 h in a 5% CO2-95% humidity incubator. After incubation, the samples were removed from the incubator and 25 μL of CellTiter-Glo™ reagent (Promega) was added. The samples were mixed by agitation and incubated at […] room temperature in a 5% CO2-95% humidity incubator. […] was read as above, (Lstart) defining luminescence for initial cell number used as baseline in GI50 determinations. ps Calculation:
# (§6) GI50 (dose for 50% inhibition of cell proliferation) is the concentration where [(LTest-LStart)/(LMax-LStart)]=0.5.
# MX-1 cells = test: Inhibition of cell proliferation (GI50, CellTiter-Glo) in MX-1 cells; type: cell-based; conditions: Homo sapiens; MX1, 48 h incubation; read-out: GI50 in Cancer Cells GI50 (nM) MX1
# Experimental: as §4, §5, §6
# MDAMB435 cells = test: Inhibition of cell proliferation (GI50, CellTiter-Glo) in MDAMB435 cells; type: cell-based; conditions: Homo sapiens, MDA-MB-435; MDAMB435, 48 h incubation; read-out: GI50 in Cancer Cells GI50 (nM) MDAMB435
# Experimental: as §4, §5, §6
# H1299 cells = test: Inhibition of cell proliferation (GI50, CellTiter-Glo) in H1299 cells; type: cell-based, human; conditions: Homo sapiens, NCI-H1299; H1299, 48 h incubation; read-out: GI50 in Cancer Cells GI50 (nM) H1299
# Experimental: as §4, §5, §6
# HT29 cells = test: Inhibition of cell proliferation (GI50, CellTiter-Glo) in HT29 cells; type: cell-based; conditions: Homo sapiens, HT-29; HT29, 48 h incubation; read-out: GI50 in Cancer Cells GI50 (nM) HT29
# Experimental: as §4, §5, §6
# [3] = system: human hepatocellular carcinoma cell line SNU398; test: Caspase cascade activation (DEVD-R110 fluorogenic substrate) in SNU398 cells; type: cell-based; conditions: SNU398, 24 h, read-out: Caspase Activation Potency EC50 (nM) (24 h) SNU398
# Experimental: as §1, §2, §3
# Several compounds were also tested in other cancer cells lines (48 h assay), including human hepatocellular carcinoma cell line SNU398, human colon carcinoma cell line […], human B cell lymphoblastoid cell line Ramos, human Burkitt's lymphoma cell line Namalwa, and cervical cancer cell line HeLa, and the data are summarized in Table II.
SMILES,"EC50 ([1]; Homo sapiens, T47D)","EC50 ([2]; Homo sapiens, NCI-H1299, 24 h)",other results
"COc1ccc(N(C)c2nc(C)nc3sccc23)cc1 [Example 2, N-(4-Methoxyphenyl)-N,2-dimethylthieno[2,3-d]pyrimidin-4-amine]",–,–,"EC50 [1]: 9 nM; EC50 ([2]; H1299, 24 h): 15 nM; GI50 (T-47D cells): 5 nM; GI50 (MX-1 cells): 5 nM; GI50 (MDAMB435 cells): 2 nM; GI50 (H1299 cells): 9 nM; GI50 (HT29 cells): 26 nM"
"COc1ccc(N(C)c2nc(C)nc3c(C)csc23)cc1 [Example 3, N-(4-Methoxyphenyl)-N,2,7-trimethylthieno[3,2-d]pyrimidin-4-amine]",233 nM,281 nM,–
"COc1ccc(N(C)c2ncnc3cc(I)sc23)cc1 [Example 7, 6-Iodo-N-(4-methoxyphenyl)-N-methylthieno[3,2-d]pyrimidin-4-amine]",> 10000 nM,> 10000 nM,–
"COc1ccc(N(C)c2ncnc3cc(-c4cccnc4)sc23)cc1 [Example 8, N-(4-Methoxyphenyl)-N-methyl-6-(pyridin-3-yl)thieno[3,2-d]pyrimidin-4-amine]",> 10000 nM,> 10000 nM,–
"COc1ccc(N(C)c2ncnc3sccc23)cc1 [Example 9, N-(4-Methoxyphenyl)-N-methylthieno[2,3-d]pynimidin-4-amine]",–,–,"EC50 [1]: 19 nM; EC50 ([2]; H1299, 24 h): 41 nM; EC50 [3]: 57 nM"
"COc1ccc(N(C)c2ncnc3c(C)csc23)cc1 [Example 10, N-(4-Methoxyphenyl)-N,7-dimethylthieno[3,2-d]pyrimidin-4-amine]",518 nM,525 nM,–
"COc1ccc(N(C)c2ncnc3scc(C)c23)cc1 [Example 12, N-(4-Methoxyphenyl)-N,5-dimethylthieno[2,3-d]pyrimidin-4-amine]",12 nM,19 nM,"EC50 ([3]; Homo sapiens, SNU-398): 15 nM"
"COc1ccc(OC)c(N(C)c2nc(C)nc3ccsc23)c1 [Example 16, N-(2,5-Dimethoxyphenyl)-N,2-dimethylthieno[3,2-d]pyrimidin-4-amine]",> 10000 nM,> 10000 nM,–
"Cc1cc(N(C)c2ncnc3ccsc23)no1 [Example 17, N-Methyl-N-(5-methylisoxazol-3-yl)thieno[3,2-d]pyrimidin-4-amine]",> 10000 nM,> 10000 nM,–
"COc1ccc(N(C)c2ncnc3sc(C)cc23)cc1 [Example 18, N-(4-Methoxy-phenyl)-N,6-dimethylthieno[2,3-d]pyrimidin-4-amine hydrochloride]",125 nM,184 nM,–
"COc1ccc(N(C)c2nc(-c3ccccc3)nc3ccsc23)cc1 [Example 19, N-(4-Methoxyphenyl)-N-methyl-2-phenylthieno[3,2-d]pyri idin-4-amine hydrochloride]",–,–,"EC50 [1]: 337 nM; EC50 ([2]; H1299, 24 h): 615 nM"
"COc1ccc(N(C)c2ncnc3sc(C)c(C)c23)cc1 [Example 23, N-(4-Methoxyphenyl)-N,5,6-trimethylthieno[2,3-d]pyrimidin-4-amine]",19 nM,51 nM,"EC50 ([3]; Homo sapiens, SNU-398): 30 nM"
"COc1cc(OC)cc(N(C)c2ncnc3ccsc23)c1 [Example 28, N-(3,5-dimethoxyphenyl)-N-methylthieno[3,2-d]pyrimidin-4-amine]",> 10000 nM,> 10000 nM,–

# The next lines start with results.
"EC50 ([1]; Homo sapiens, T47D)","EC50 ([2]; Homo sapiens, NCI-H1299, 24 h)",SMILES,other results
> 10000 nM,> 10000 nM,"COc1ccc(Nc2ncnc3scc(C)c23)cc1 [Example 11, N-(4-Methoxyphenyl)-5-methylthieno[2,3-d]pyrimidin-4-amine]",–
> 10000 nM,> 10000 nM,"COc1ccc(Nc2nc(C)nc3scc(C)c23)cc1 [Example 13, N-(4-Methoxyphenyl)-2,5-dimethylthieno[2,3-d]pyrimidin-4-amine hydrochloride]",–
> 10000 nM,> 10000 nM,"COc1ccc(Nc2ncnc3ccsc23)cc1 [Example 14, N-(4-Methoxyphenyl)-thieno[3,2-d]pyrimidin-4-amine hydrochloride]",–
36 nM,28 nM,"COc1ccc(N(C)c2nc(SC)nc3ccsc23)cc1 [Example 20, N-(4-Methoxyphenyl)-N-methyl-2-(methylthio)thieno[3,2-d]pyrimidin-4-amine hydrochloride]","EC50 ([3]; Homo sapiens, SNU-398): 81 nM"
2500 nM,4940 nM,"COc1ccc(OC)c(N(C)c2ncnc3ccsc23)c1 [Example 21, N-(2,5 -Dimethoxyphenyl)-N-methylthieno[3,2-d]pyrimidin-4-amin]",–
185 nM,327 nM,"COC(=O)c1ccc(N(C)c2ncnc3ccsc23)cc1 [Example 22, N-(4-Methoxycarbonylphenyl)-N-methylthieno[3,2-d]pyrimidin-4-amine hydrochloride]",–
> 10000 nM,> 10000 nM,"COc1ccccc1N(C)c1ncnc2ccsc12 [Example 25, N-(2-Methoxyphenyl)-N-methylthieno[3,2-d]pyrimidin-4-amine]",–
1630 nM,2620 nM,"COc1ccc(N(C)c2ncnc3ccsc23)cc1OC [Example 26, N-(3,4-Dimethoxyphenyl)-N-methylthieno[3,2-d]pyrimidin-4-amine]",–
> 10000 nM,> 10000 nM,"COc1cccc(N(C)c2ncnc3ccsc23)c1 [Example 27, N-(3-methoxyphenyl)-N-methylthieno[3,2-d]pyrimidin-4-amine]",–

# Source: US20070213305A1, “N-alkyl-N-aryl-thienopyrimidin-4-amines and analogs as activators of caspases and inducers of apoptosis and the use thereof” (Cytovia, Inc., priority 2005, published 2007)
